From patent US5446032A, “Imidazo (4,5-C) pyridine derivatives as PAF antagonists” (British Biotech Pharmaceuticals Limited, priority 1991, dated 1995) come the findings set out here.

The target of this assay is T1, PAF receptor (human platelet plasma membrane) (Homo sapiens, UniProt P25105).
T1 construct: Platelet concentrates are obtained from a hospital blood bank; from tissue; host or cells: human platelets (concentrates from a hospital blood bank), lysed by freeze-thaw; membrane fraction
The experiment in a line: Inhibition of [3H]-PAF receptor binding to human platelet plasma membrane. The settings on record: [3H]-PAF 0.5 nM; 100 μg membrane fraction; 0° C.; 1 hour incubation; pH 7.0. As for the experimental part:
Compounds of general formula I inhibit PAF-induced functions in both the cellular and tissue levels by changing the PAF binding to its specific receptor site. The ability of compounds of general formula I to inhibit the binding of PAF to its specific receptor binding site on human platelet plasma membranes was measured according to Example 24.
Inhibition of [^3 H]-PAF Receptor Binding
The inhibition of [^3 H]-PAF binding to human platelet plasma membrane by compounds of general formula I is determined by isotopic labelling and filtration techniques. Platelet concentrates are obtained from a hospital blood bank. These platelet concentrates (500-2500 ml.) are centrifuged at 800 rpm for 10 minutes in a SORVALL RC3B centrifuge to remove the red blood cells present. (The word SORVALL is a trade mark.) The supernatant is subsequently centrifuged at 3,000 rpm in a SORVALL RC3B centrifuge to pellet the platelets present. The platelet rich pellets are resuspended in a minimum volume of buffer (150 mM NaCl, 10 mM Tris, 2 mM EDTA, pH 7.5) and layered onto Ficoll-Paque gradients, 9 ml platelet concentrate to 2 ml Ficoll, and centrifuged at 1,900 rpm for 15 minutes in a SORVALL RT6000 centrifuge. This step removes the residual red blood cells and other nonspecific material such as lymphocytes from the preparation. The platelets which form a band between the plasma and the Ficoll are removed, resuspended in the above buffer and centrifuged at 3,000 rpm for 10 minutes in a SORVALL RT6000 centrifuge. The pelleted platelets are resuspended in buffer (10 mM Tris, 5 mM MgCl2, 2 mM EDTA, pH 7.0), snap freezed in liquid N2 and allowed to thaw slowly at room temperature in order to lyse the platelets. The latter step is repeated at least 3 times to ensure proper lysis. The lysed platelets are centrifuged at 3,000 rpm for 10 minutes in a SORVALL RT6000 centrifuge and resuspended in buffer. The latter step is repeated twice in order to remove any cytoplasmic proteins which may hydrolyse the platelet activating factor (PAF) receptor. The prepared platelet membranes may be stored at -70° C. After thawing the prepared membranes are centrifuged in a SORVALL RT6000 at 3,000 rpm for 10 minutes and resuspended in assay buffer.
The assay is conducted by preparing a series of Tris-buffered solutions of the selected antagonist of predetermined concentrations. Each of these solutions contained [^3 H]-PAF (0.5 nM; 1-O-[^3 H]octadecyl-2-acetyl-sn-glycero-3-phosphoryl choline with a specific activity of 132 Ci/mmol), […], a known amount of the test antagonist, and a sufficient amount of Tris-buffer solution (10 mM Tris, 5 mM MgC2, pH 7.0, 0.25% BSA) to make the final volume 1 ml. Incubation is initiated by the addition of 100 μg of the isolated membrane fraction to each of the above solutions at 0° C. Two control samples, one (C1) which contained all the ingredients described above except the antagonist and the other (C2) contains C1 plus a 1000-fold excess of unlabelled PAF, are also prepared and incubated simultaneously with the test samples. After 1 hour incubation, each solution is filtered rapidly under vacuo through a WHATMAN GF/C glass fibre filter in order to separate unbound PAF from bound PAF. (The word WHATMAN is a trade mark.) The residue in each case is rapidly washed 4 times with 5 ml cold (4° C.) Tris-buffer solution. Each washed residue is dried under vacuum on a sampling manifold and placed into vials containing 20 ml of OPTIPHASE MP scintillation fluid and the radioactivity counted in a liquid scintillation counter. (The word OPTIPHASE is a trade mark.) Defining the counts for total binding with antagonist from a test sample as "TBA"; the counts for total binding from the control sample C1 as "TB"; and the counts for nonspecific binding from the control sample C2 as "NSB"; the percent inhibition of each test antagonist can be determined by the following equation:
%Inhibition=[(TB-TBA)/SB]×100
where the specific binding SB=TB-NSB […]

T1 sequence (P25105 whole entry): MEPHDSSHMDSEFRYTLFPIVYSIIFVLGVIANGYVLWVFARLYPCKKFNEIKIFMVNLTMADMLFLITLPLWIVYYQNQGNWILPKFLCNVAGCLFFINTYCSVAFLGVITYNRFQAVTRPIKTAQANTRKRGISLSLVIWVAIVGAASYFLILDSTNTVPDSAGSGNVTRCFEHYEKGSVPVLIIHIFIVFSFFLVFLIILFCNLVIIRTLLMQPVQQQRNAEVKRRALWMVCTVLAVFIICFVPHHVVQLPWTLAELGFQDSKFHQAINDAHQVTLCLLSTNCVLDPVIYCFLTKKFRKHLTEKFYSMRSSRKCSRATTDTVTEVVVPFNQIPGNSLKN

Usually IC50 stands for the concentration that inhibits the measured activity by half. Low values mean higher potency, high ones lower potency. Molecule `CCOC(=O)[C@H](CC(C)C)N(C)S(=O)(=O)c1ccc(Cn2ccc3ncnc-3c2)cc1` [Example 1, N-Methyl-N-4-(5H-imidazo[4,5-c]pyridylmethyl)phenylsulphonyl-L-leucine ethyl ester] displayed an IC50 of 5 nM. As for `C=CCOC(=O)[C@H]([C@@H](C)CC)N(C)S(=O)(=O)c1ccc(Cn2ccc3nc(C)nc-3c2)cc1` [Example 4, N-Methyl-N-4-(5H-2-methylimidazo[4,5-c]pyridylmethyl)phenylsulphonyl-L-isoleucine allyl ester], the figure is 10 nM; as for `CCOC(=O)[C@H](CC(C)C)N(C)S(=O)(=O)c1ccc(Cn2ccc3nc(C)nc-3c2)c(Cl)c1` [Example 5, N-Methyl-N-4-(5H-2-methylimidazo[4,5-c]pyridylmethyl)-3-chlorophenylsulphonyl-L-leucine ethyl ester], 2 nM; as for `CCOC(=O)CN([C@@H](CC(C)C)C(=O)OCC)S(=O)(=O)c1ccc(Cn2ccc3nc(C)nc-3c2)cc1` [Example 6, N-Ethoxycarbonylmethyl-N-4-(5H-2-methylimidazo[4,5-c]pyridylmethyl)phenylsulphonyl-L-leucine ethyl ester], 10 nM. On to `CCOC(=O)[C@H](CC(C)C)N(CC(=O)OC(C)(C)C)S(=O)(=O)c1ccc(Cn2ccc3nc(C)nc-3c2)cc1` [Example 8, N-t-Butyloxycarbonylmethyl-N-4-(5H-2-methylimidazo[4,5-c]pyridylmethyl)phenylsulphonyl-L-leucine ethyl ester], for which the IC50 came to 15 nM. This IC50 is about 1.5-fold higher than that of the molecule before. The molecule `Cc1nc2ccn(Cc3ccc(S(=O)(=O)N(C)[C@H](CO[Si](c4ccccc4)(c4ccccc4)C(C)(C)C)CC(C)C)cc3)cc-2n1` [Example 21, N-Methyl-N-4-(5H-2-methylimidazo[4,5-c]pyridylmethyl)phenylsulphonyl-L-leucinyl t-butyldiphenylsilyl ether] showed a 50% inhibitory concentration (IC50) of 20 nM. `COC(C)C(C(C)C)N(C)S(=O)(=O)c1ccc(Cn2ccc3nc(C)nc-3c2)cc1` (stereo not shown) [Example 23, N-Methyl-N-4-(5H-2-methylimidazo[4,5-c]pyridylmethyl)phenylsulphonyl-2-methoxy-3-amino-4-methylpentane] gave an IC50 of 15 nM.
